Assay results: US10335380B2, “Compounds suitable for the treatment of myeloproliferative neoplasms as well as methods for the diagnosis/prognosis of myeloproliferative neoplasms” (CNIC Fundacion Centro Nacional De investigaciones …, priority 2013, dated 2019)

What was measured:
[1] = molecular target: murine receptor (β3-adrenergic) (Mus musculus, UniProt P25962); settings: cited from earlier work
[2] = cited from earlier work
[3] = tested on: mice transplanted with MPN BM cells (JAK2-V617F); test: In vivo pharmacological treatments of mice transplanted with MPN (Mx1-cre;JAK2-V617F) BM cells; set-up: species or system mouse
Source text: In Mx1-cre; JAK2-V617F double-transgenic mice, expression of the human JAK2-V617F mutation is driven by the endogenous Jak2 promoter and can be conditionally expressed in haematopoietic cells upon Myxovirus resistance-1 (Mx1)-driven Cre recombinase activation by polyinosine-polycytosine (plpC). PlpC-induced transgenic mice and wild-type mice transplanted with BM cells from these mice develop progressive symptoms of PV19,20.
Age-matched, female wild-type C57BL/6J or Nes-gfp mice were used as recipients in bone marrow (BM) transplantation assays and for in vivo pharmacological treatments. […] Vehicle (saline solution) daily injections were performed in the same way. Unless indicated, treatment was initiated 4 weeks posttransplant, when animals evidenced peripheral blood signs of MPN. Mice were randomly distributed prior to treatment initiation, and disease development was monitored over time in peripheral blood samples, using an automated blood counter. […] The neuroprotective drug 4-methylcatechol (10 μg kg-1, i.p.) was injected once daily. The JAK inhibitor INCB018424 (S-Ruxilitinib, Abmole Bioscience) was administered by oral gavage (30 mg kg-1, twice per day separated 10-12 hours) in 0.5% hydroxypropylmethylcellulose (Sigma) after solubilisation in DMSO. The IL-1 receptor antagonist (Kineret, Sobi, Stockholm, Sweden) was administered by subcutaneous osmotic pumps (Alzet) infusing a continuous dosing of 40 mg kg-1 per day. Mice were sacrificed at different time points and subjected to complete necropsy; BM and spleen were analysed by histology and flow cytometry; femora and skull were used for immunostainings, and haematopoietic and stromal cells were additionally used for functional assays ex vivo.
BM cell extraction, flow cytometry and fluorescence-activated cell sorting For haematopoietic cell recovery, bones were crushed in a mortar, filtered through a 40-μm mesh to obtain single cell suspensions, and depleted of red blood cells by lysis in 0.15 M NH4Cl for 10 min at 4° C. Spleen samples were homogenised and filtered prior to lysis; blood samples were directly lysed. Cells (1-2×10^6 cells per sample) were incubated with the appropriate dilution (2-5 μg ml-1) of fluorescent antibody conjugates and 4′,6-diamidino-2-phenylindole (DAPI) for dead cell exclusion, and analysed on LSRFortessa flow cytometer (BD Biosciences, Franklin Lakes, N.J.) equipped with FACSDiva Software (BD Biosciences). […] Biotinylated antibodies were detected with fluorochrome-conjugated streptavidin (BD Biosciences). Phenotypic populations of HSC were defined as long-term haematopoietic stem cells (HSCs) (lin− Sca1+c-kit+ (LSK) CD34− Flt3−), short-term HSCs (LSK CD34+ Flt3−) and multipotent progenitors (MPP) (LSK CD34+ Flt3+).
Cells were filtered through a 40-μm mesh and erythrocytes were lysed as previously described. The resulting bone marrow-enriched cell suspensions were pelleted, washed and resuspended in PBS buffer containing 2% foetal calf serum (FCS) for further analyses. […] BM stromal CD45− CD31− Ter119− cells were further purified according to GFP fluorescence using a FACS Aria cell sorter (BD Bioscience). For the determination of apoptotic cells, samples were washed with PBS after surface antibody staining and subsequently stained with Annexin V-Pacific Blue and SYTOX AADvanced (Invitrogen, Life Technologies, Paisley, UK). For functional assays, cells were enriched by immunomagnetic depletion using biotinylated CD45 and Ter119. For immunophenotypic characterisation, total BM samples were studied by flow cytometry using the following additional antibodies: CD63 (NVG-2), CD105 (MJ7/18), CD140a (APA5), Vcam, CD51 (RMV-7), all from Biolegend; and CD90.2 from BD Biosciences.
Immunofluorescence staining of cryostat sections was performed. For whole mount staining of the calvaria, all incubation times were extended. The antibodies used were TH (Rabbit pAb, Millipore) and GFAP (Rabbit pAb, Dako).

[4] = tested on: CD45+ haematopoietic cells from BM of Nes-gfp;Mx1-cre;JAK2-V617F mice and control littermates; test: Colony-forming units in culture (CFU-C) with drug added in vitro; assay type: cell-based, mouse; settings: scored after one week in culture
Protocol: Colony-forming units in culture (CFU-C) assay was performed. […] Colonies of more than 50 cells were scored after 7 days of incubation at 37° C., 5% CO2, 20% O2 in a water-jacketed incubator. For CFU-F assays, BM CD45− Ter119− cells were plated into 6-well dishes and cultured in maintenance medium (α-MEM, 15% FCS with antibiotics). After 10-12 days in culture, adherent cells were fixed with 100% methanol and stained with Giemsa stain (Sigma) to reveal fibroblastic clusters. Colonies with more than 50 cells were scored as CFU-F.

[5] = tested on: BM-derived Schwann cells; test: Co-culture of BM-derived Schwann cells with JAK2V617F+ BM LSK cells, apoptosis by TUNEL; assay type: cell-based, mouse; settings: IL1ra 200 ng ml-1, 24 h co-culture
Protocol: For co-culture of BM-derived Schwann cells and MSCs with BM LSK cells from control and mutant mice, neonatal BM CD45− CD31− Ter119− Nes-GFP+ Pdgfrα−/+ cells containing Schwann cell precursors and MSCs, respectively (Isern J et al., submitted), were sorted and cultured under Schwann cell differentiation conditions, as previously described 34, or mesenchymal culture conditions, in MEMα supplemented with 10 ng ml-1 PDGFAB, 15% FBS. Both were co-cultured for 24 h with primary BM LSK cells isolated by FACS from control or mutant mice. Schwann cells derived from sorted GFP+ Pdgfrα− BM precursors were additionally incubated with IL1ra (200 ng ml-1) for the co-culture period. After 24 h of co-culture, haematopoietic cells were washed away and the remaining adherent Schwann cells were fixed and analysed for apoptosis by TUNEL.

[6] = IL1ra 40 mg kg-1 per day, subcutaneous osmotic pumps, 18 weeks

Chain of murine receptor (β3-adrenergic) (P25962 whole entry): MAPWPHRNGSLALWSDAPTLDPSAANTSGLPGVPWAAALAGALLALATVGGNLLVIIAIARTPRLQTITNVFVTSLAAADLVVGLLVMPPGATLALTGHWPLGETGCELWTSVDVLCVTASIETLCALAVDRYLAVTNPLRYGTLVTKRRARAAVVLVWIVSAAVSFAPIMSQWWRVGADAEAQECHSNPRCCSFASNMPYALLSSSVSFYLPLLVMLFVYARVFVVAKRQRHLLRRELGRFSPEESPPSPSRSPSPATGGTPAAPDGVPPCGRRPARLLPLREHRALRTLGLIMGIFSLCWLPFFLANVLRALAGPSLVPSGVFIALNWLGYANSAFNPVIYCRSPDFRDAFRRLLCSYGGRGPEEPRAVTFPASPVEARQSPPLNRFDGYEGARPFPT

With Nc1nc(CC(=O)Nc2ccc(CCNC[C@H](O)c3ccccc3)cc2)cs1 [Mirabegron] as the compound, how does the “affinity for the murine receptor” value [1] read?
The value was “relatively low”.

And the solubility [2]?
The solubility was “poor”.

What about the MPN progression ([3]; BRL37344 or Mirabegron 2 mg kg-1 i.p. twice a day) of the same compound?
The MPN progression was “delays”.

And the “several MPN markers (blood counts)” value ([3]; Mirabegron 2 mg kg-1 i.p. twice a day, last two weeks, 8 weeks after transplantation, to lower extent than BRL37344)?
The value was “improved”.

Which “growth of cultured haematopoietic progenitors (CFU-C)” value [4] does the source give for Cc1ccc(O)c(O)c1 [4-methylcatechol] here?
Its value is “neither 4-methylcatechol nor BRL37344 affected”.

And the “incipient MPN signs (haematological parameters)” value ([3]; 8 weeks after transplantation, treatment for the last 4 weeks)?
Its value is “improved”.

And the “mutant haematopoietic progenitor expansion” value ([3]; early treatment, 4 weeks, BRL37344 2 mg kg-1 twice a day, 4-methylcatechol 10 μg kg-1 once daily)?
The value was “prevented”.

What about the “BM Schwann cells (Gfap immunostaining)” value ([3]; symptomatic MPN mice, 4-methylcatechol 10 μg kg-1 i.p. once daily over a month) of the same compound?
Its value is “preserved”.

And the MPN-associated neutrophilia ([3]; symptomatic MPN mice, treatment started 4 weeks after transplantation, BRL37344 2 mg kg-1 i.p. twice a day, 4-methylcatechol 10 μg kg-1 i.p. once daily)?
The MPN-associated neutrophilia was “prevented”.

Which “3-fold higher apoptotic rate of Schwann cells co-cultured with JAK2V617F+ haematopoietic progenitors” value [5] does the source give for “interleukin-1 receptor antagonist: IL-1 receptor antagonist (Kineret, Sobi, Stockholm, Sweden)” here?
Its value is “blocked”.

What about the “BM MSC frequency” value [3, 6] of the same compound?
The value was “increased”.

And the “caspase-1 mRNA expression in haematopoietic progenitors” value [3, 6]?
Its value is “reduced”.

What about the platelet counts ([3]; IL1ra 40 mg kg-1 per day, subcutaneous osmotic pumps, 18 weeks, starting 2 weeks after transplant) of the same compound?
Its platelet counts is “reduced”.
